Earlier results in publication PMC3547486 (ACS Chemical Neuroscience, 2012).

System: 5-HT release

Clc1cccc(N2CCNCC2)c1 [mCPP, m-chlorophenylpiperazine]
5-HT releasing activity (in words): potent 5-HT releaser
